Key:
Type in all cases: physicochemical
[1] = Multi stage cross-current back-extraction from isobutyl acetate at pH 6, distribution coefficient by HPLC; conditions: water/isobutyl acetate
Method: (§1) HPLC analysis was based on reversed phase liquid chromatography followed by UV-detection at 238 nm. Apparatus: Dionex HPLC-UV system comprising of a P680 pump, a TCC-100 column compartment with thermostat, a WPS-3000 auto sampler and a UVD34OU PDA detector.
(§2) pH values mentioned in the description and claims of the present application were measured using a Radiometer PHM82 standard pH meter equipped with a Mettler Toledo Inlab 412 pH electrode (electrolyte 9823). Equilibration was carried out at 20±1° C. using a Merck pH 4.00 buffer (art. nr. 1.09435.1000) and a Merck pH 7.00 buffer (art. nr. 1.09439.1000).
Starting material for this experiment was broth filtrate, obtained after ultra-filtration of broth obtained by fermentation of Penicillium chrysogenum transformant T1.48 as described in Example 4 of WO 2007/147827 using a 50 nm poly-sulfone membrane. The filtrate (2 liter, containing 1.2 g/l pravastatin and 0.37 g/l compactin) was extracted twice with isobutyl acetate (2×1 liter) at pH 4. For a clear phase separation, the organic phases were filtered through a Seitz Z-2000 filter plate. The organic phases were combined and washed with water (500 ml), giving isobutyl acetate extract (1960 ml) which was concentrated to 100 ml under vacuum at T<40° C. The concentrate was decolorized using a coal cartridge filled with Cuno C55 carbon (1.8 g carbon; diameter of carbon plate 18 cm^2). After rinsing a clear solution (150 ml) was obtained containing ˜12 g/l pravastatin and 3.8 g/l compactin. This solution was extracted three times with water (3×150 ml) at pH 6. The pH was adjusted with 25% ammonia. The aqueous and organic phases were analyzed with HPLC (Table 3). As can be calculated, after the second back-extraction the total extraction yield of pravastatin in the combined aqueous phases was 97.6% pravastatin and after the third back-extraction the total extraction yield of pravastatin in the combined aqueous phases was 99.6%. The ratio pravastatin:compactin was 3:1 in the starting mixture, 45:1 after one back-extraction, 25:1 after two back-extractions and 17:1 after three back-extractions.

[2] = Multi stage cross-current back-extraction from ethyl acetate at pH 5.9, distribution coefficient by HPLC; conditions: water/ethyl acetate
Method: as §1, §2
Starting material for this experiment was broth filtrate, obtained after ultra-filtration of broth obtained by fermentation of Penicillium chrysogenum transformant T1.48 as described in Example 4 of WO 2007/147827 using a 50 nm poly-sulfone membrane. The filtrate (5.25 liter, containing 1.2 g/l pravastatin and 0.37 g/l compactin) was extracted twice with ethyl acetate (2×2.5 liter) at pH 4. For a clear phase separation, the organic phases were filtered through a Seitz Z-2000 filter plate. The extraction yields were 90.6% and 8.3% respectively, so the overall extraction yield was 98.9%. The organic phases were combined and washed with water (2.5 liter), giving ethyl acetate extract (4.65 liter, yield over the wash step 97%) which was concentrated to 250 ml under vacuum at T<40° C., giving a clear solution containing ˜25 g/l pravastatin. This solution was extracted three times with water (3×250 ml) at pH 5.9. The pH was adjusted with 4N sodium hydroxide. The aqueous and organic phases were analyzed with HPLC (Table 4). As can be calculated, after the second back-extraction the total extraction yield of pravastatin in the combined aqueous phases was 91% pravastatin and after the third back-extraction the total extraction yield of pravastatin in the combined aqueous phases was 96%. The ratio pravastatin:compactin was 3:1 in the starting mixture, 26:1 after one back-extraction, 19:1 after two back-extractions and 17:1 after three back-extractions.

[3] = Batch-wise single stage back-extraction from methyl isobutyl ketone into water, distribution coefficient by HPLC
Method: as §1, §2
One of the portions of supernatant (800 ml) obtained in Example 1, methyl isobutyl ketone (800 ml) and dicalite 448 (20 g) were mixed and the pH was adjusted to 4 with 6N sulfuric acid. The mixture was filtered over a Seitz Z-2000 filter plate. The phases of the filtrate were separated and the organic phase was washed once with water (400 ml), giving a methyl isobutyl ketone extract (750 ml) from which eight portions of 80 ml were taken. Each portion was mixed with an equal volume of water at a certain pH, varying from 4.5 to 8. After mixing, the phases were separated and analyzed by HPLC.

[4] = Batch-wise single stage back-extraction from ethyl acetate into water, distribution coefficient by HPLC
Method: as §1, §2
A broth obtained by fermentation of Penicillium chrysogenum transformant T1.48 as described in Example 4 of WO 2007/147827 (2 liter, containing 2.5 g/kg pravastatin and 0.8 g/kg compactin) was centrifuged and the supernatant was divided into 2 portions of 800 ml. One of these portions of supernatant (800 ml), ethyl acetate (800 ml) and dicalite 448 (20 g) were mixed and the pH was adjusted to 4 with 6N sulfuric acid. The mixture was filtered over a Seitz Z-2000 filter plate. The phases of the filtrate were separated and the organic phase was washed once with water (400 ml), giving an ethyl acetate extract (700 ml) which was divided into eight portions of 80 ml and one of 60 ml. Each portion was mixed with an equal volume of water at a certain pH, varying from 4.5 to 8. After mixing, the phases were separated and analyzed by HPLC.

Structure (SMILES) | Distribution coefficient (CAqueous phase/COrganic phase) ([1]; pH 6, 1st extraction) | Distribution coefficient (CAqueous phase/COrganic phase) ([1]; pH 6, 2nd extraction) | Distribution coefficient (CAqueous phase/COrganic phase) ([1]; pH 6, 3rd extraction) | Distribution coefficient (CAqueous phase/COrganic phase) ([2]; pH 5.9, 1st extraction) | Distribution coefficient (CAqueous phase/COrganic phase) ([2]; pH 5.9, 2nd extraction) | Distribution coefficient (CAqueous phase/COrganic phase) ([2]; pH 5.9, 3rd extraction) | Distribution coefficient (CAqueous phase/COrganic phase) ([3]; pH 4.5) | Distribution coefficient (CAqueous phase/COrganic phase) ([3]; pH 5) | Distribution coefficient (CAqueous phase/COrganic phase) ([3]; pH 5.5) | Distribution coefficient (CAqueous phase/COrganic phase) ([3]; pH 6) | Distribution coefficient (CAqueous phase/COrganic phase) ([3]; pH 6.5) | Distribution coefficient (CAqueous phase/COrganic phase) ([3]; pH 7) | Distribution coefficient (CAqueous phase/COrganic phase) ([3]; pH 7.5) | Distribution coefficient (CAqueous phase/COrganic phase) ([3]; pH 8) | Distribution coefficient (CAqueous phase/COrganic phase) ([4]; pH 4.5) | Distribution coefficient (CAqueous phase/COrganic phase) ([4]; pH 5) | Distribution coefficient (CAqueous phase/COrganic phase) ([4]; pH 5.5) | Distribution coefficient (CAqueous phase/COrganic phase) ([4]; pH 6) | Distribution coefficient (CAqueous phase/COrganic phase) ([4]; pH 6.25) | Distribution coefficient (CAqueous phase/COrganic phase) ([4]; pH 6.5) | also measured
CC[C@H](C)C(=O)O[C@H]1C[C@H](O)C=C2C=C[C@H](C)[C@H](CC[C@@H](O)C[C@@H](O)CC(=O)[O-])[C@H]21.[Na+] [Prava, pravastatin] | 4.8 | 5.9 | 5.2 | 1.5 | 1.9 | 0.7 | 0.2 | 0.2 | 0.6 | 1.4 | 4.0 | 12.0 | 37.5 | 83.8 | 0.1 | 0.2 | 0.4 | 1.2 | 1.9 | 3.5 | Distribution coefficient (CAqueous phase/COrganic phase) ([4]; pH 7): 10.3; Distribution coefficient (CAqueous phase/COrganic phase) ([4]; pH 7.5): 27.4; Distribution coefficient (CAqueous phase/COrganic phase) ([4]; pH 8): 94.1
CC[C@H](C)C(=O)O[C@H]1CCC=C2C=C[C@H](C)[C@H](CC[C@@H](O)C[C@@H](O)CC(=O)[O-])[C@H]21.[Na+] [Comp, compactin] | 0.06 | 0.07 | 0.07 | 0.08 | 0.06 | 0.03 | 0.0 | 0.0 | 0.0 | 0.0 | 0.1 | 0.2 | 0.9 | 3.3 | 0.0 | 0.0 | 0.0 | 0.0 | 0.0 | 0.1 | Distribution coefficient (CAqueous phase/COrganic phase) ([4]; pH 7): 0.3; Distribution coefficient (CAqueous phase/COrganic phase) ([4]; pH 7.5): 0.8; Distribution coefficient (CAqueous phase/COrganic phase) ([4]; pH 8): 2.9

Source: patent publication US20110130450A1, “PRAVASTATIN EXTRACTION” (priority 2008, published 2011)
